Series [1] has as its system dogs with naturally occurring coxofemoral joint disease. The settings on record: dog, in vivo, po, 3 mg/kg.
Experimental: (§1) Efficacy was determined by rear limb using a quantified kinetic gait analysis.
The test system is the same in series [2]. Description: PAH-100 oral tablet efficacy (PAH16-013), kinetic gait analysis. The settings on record: for abnormal clinical observations or adverse events: nine hound dogs, each received all treatments, PAH-100 single oral 3 mg/kg, carprofen 4.4 mg/kg PO q24 hr, 7 doses.
Experimental: as §1

Molecules are shown by their SMILES.

Consider `O=C(O)C1=Cc2cc(OC(F)(F)F)ccc2OC1C(F)(F)F` (racemic) [PAH-100, (±)-6-(trifluoromethoxy)-2-(trifluoromethyl)-2H-chromene-3-carboxylic acid], for which, in series [1], the tolerability result is on record as “well tolerated”. Also, the “limb use by kinetic gait analysis, compared to no treatment and daily carprofen” value in series [2] (dogs with coxofemoral joint osteoarthritis, single oral 3 mg/kg, over 7 days, majority of kinetic outcomes) is “improved limb use”. For the same molecule, the “abnormal clinical observations or adverse events” value in series [2] was “No abnormal clinical observations or adverse events”.

In the case of `CC(C(=O)O)c1ccc2c(c1)[nH]c1ccc(Cl)cc12` (stereo not shown) [carprofen, reference compound], the “abnormal clinical observations or adverse events” value in series [2] is on record as “No abnormal clinical observations or adverse events”.

Source of the values: patent publication US20210186923A1, “THERAPEUTIC FORMULATIONS AND USES THEREOF” (PIEDMONT ANIMAL HEALTH INC., priority 2017, published 2021).
